Measurements as given in patent US11957687B2 (REGENERON PHARMACEUTICALS, INC., priority 2019, dated 2024).

Each compound was assayed against HSD17B13 (Homo sapiens (Human), UniProt Q7Z5P4) (assay: HSD17B13 enzymatic inhibition assay (150 nM or 50 nM HSD17B13)). Conditions: 50 nM HSD17B13; read-out: Inhibition of 50 nM of HSD17B13 IC50.
Format: biochemical

Sequence of HSD17B13 (Q7Z5P4 other isoform, or with tags, fused parts or gaps): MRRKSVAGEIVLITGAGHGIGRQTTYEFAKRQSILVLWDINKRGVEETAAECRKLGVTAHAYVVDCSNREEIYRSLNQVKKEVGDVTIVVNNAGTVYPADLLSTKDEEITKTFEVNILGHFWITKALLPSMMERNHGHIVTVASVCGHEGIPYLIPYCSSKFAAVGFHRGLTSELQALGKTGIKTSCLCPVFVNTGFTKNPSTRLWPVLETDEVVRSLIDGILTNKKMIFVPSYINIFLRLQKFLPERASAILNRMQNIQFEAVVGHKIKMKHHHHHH

**Q.** How did the IC50 turn out when `O=C(NC1c2ccccc2Oc2ccccc21)c1ccc(C(F)F)[nH]c1=O` [Compound 278, 6-(difluoromethyl)-2-oxo-N-(9H-xanthen-9-yl)-1,2-dihydropyridine-3-carboxamide] was run?
**A.** The IC50 was 2 µM.

**Q.** How did the IC50 turn out when `Cc1ccc2c(c1)C(NC(=O)c1ccc(C(F)(F)F)[nH]c1=O)c1cc(C)ccc1O2` [Compound 158, N-(2,7-dimethyl-9H-xanthen-9-yl)-2-oxo-6-(trifluoromethyl)-1,2-dihydropyridine-3-carboxamide] was run?
**A.** The IC50 was 0.36 µM.

**Q.** `CCCc1cccc2c1CCCC2NC(=O)c1ccc(C(F)(F)F)[nH]c1=O` (stereo not drawn) [Compound 531, 2-oxo-N-(5-propyl-1,2,3,4-tetrahydronaphthalen-1-yl)-6-(trifluoromethyl)-1,2-dihydropyridine-3-carboxamide] was tested. Which IC50 did it give?
**A.** The IC50 was greater than 10 µM.

**Q.** With `CSc1ccccc1C(NC(=O)c1ccc(C(F)(F)F)[nH]c1=O)c1ccc(C)cc1` (stereo not drawn) [Compound 246, N-((2-(methylthio)phenyl)(p-tolyl)methyl)-2-oxo-6-(trifluoromethyl)-1,2-dihydropyridine-3-carboxamide] as the compound, how does the IC50 read?
**A.** The IC50 was 0.3 µM.

**Q.** `O=C(NC(c1ccccc1)c1ccc(N2CCN(CC(F)(F)F)CC2)cc1)c1ccc(C(F)(F)F)[nH]c1=O` (stereo not drawn) [Compound 96, N-(phenyl(4-(4-(2,2,2-trifluoroethyl)piperazin-1-yl)phenyl)methyl)-2-oxo-6-(trifluoromethyl)-1,2-dihydropyridine-3-carboxamide] was tested. Which IC50 did it give?
**A.** Its IC50 is 1.74 µM.

**Q.** Which IC50 does the source give for `N#Cc1cccc2c1C(NC(=O)c1ccc(C(F)(F)F)[nH]c1=O)c1ccccc1O2` (stereo not drawn) [Compound 527, N-(1-cyano-9H-xanthen-9-yl)-2-oxo-6-(trifluoromethyl)-1,2-dihydropyridine-3-carboxamide] here?
**A.** Its IC50 is 0.99 µM.

**Q.** Which IC50 does the source give for `Cc1ccc2c(c1)C(NC(=O)c1ccc(C(F)(F)F)[nH]c1=O)C(C)C2` (stereo not drawn) [Compound 288, N-(2,6-dimethyl-2,3-dihydro-1H-inden-1-yl)-2-oxo-6-(trifluoromethyl)-1,2-dihydropyridine-3-carboxamide] here?
**A.** Its IC50 is 0.19 µM.

**Q.** Which IC50 does the source give for `Cc1ccc2c(c1)S(=O)(=O)c1cc(C)ccc1C2NC(=O)c1cc(N2CCNCC2)c(C(F)(F)F)[nH]c1=O` [Compound 425, N-(3,6-dimethyl-10,10-dioxido-9H-thioxanthen-9-yl)-2-oxo-5-(piperazin-1-yl)-6-(trifluoromethyl)-1,2-dihydropyridine-3-carboxamide] here?
**A.** Its IC50 is 0.27 µM.

**Q.** `NCc1ccc(C(NC(=O)c2ccc(C(F)(F)F)[nH]c2=O)c2ccccc2)cc1` (stereo not drawn) [Compound 98, N-((4-(aminomethyl)phenyl)(phenyl)methyl)-2-oxo-6-(trifluoromethyl)-1,2-dihydropyridine-3-carboxamide] was tested. Which IC50 did it give?
**A.** The IC50 was greater than 10 µM.

**Q.** How did the IC50 turn out when `CCCC1CC(NC(=O)c2ccc(C(F)(F)F)[nH]c2=O)c2ccc(C)cc2S1` (stereo not drawn) [Compound 381, N-(7-methyl-2-propylthiochroman-4-yl)-2-oxo-6-(trifluoromethyl)-1,2-dihydropyridine-3-carboxamide] was run?
**A.** Its IC50 is 0.13 µM.

**Q.** How did the IC50 turn out when `Cc1cccc2c1C(NC(=O)c1ccc(C(F)(F)F)[nH]c1=O)c1ccccc1O2` (stereo not drawn) [Compound 157, N-(1-methyl-9H-xanthen-9-yl)-2-oxo-6-(trifluoromethyl)-1,2-dihydropyridine-3-carboxamide] was run?
**A.** The IC50 was 0.85 µM.

**Q.** Which IC50 does the source give for `Cc1ccc(C(NC(=O)c2ccc(C(F)(F)F)[nH]c2=O)C2CCOCC2)cc1` (stereo not drawn) [Compound 558, 2-oxo-N-((tetrahydro-2H-pyran-4-yl)(p-tolyl)methyl)-6-(trifluoromethyl)-1,2-dihydropyridine-3-carboxamide] here?
**A.** The IC50 was 4.57 µM.

**Q.** For `O=C(NC1c2ccccc2S(=O)(=O)c2ccccc21)c1ccc(C(F)(F)F)[nH]c1=O` [Compound 11A, N-(10,10-dioxido-9H-thioxanthen-9-yl)-2-oxo-6-(trifluoromethyl)-1,2-dihydropyridine-3-carboxamide], which IC50 is on record?
**A.** The IC50 was 1.19 µM.

**Q.** Which IC50 does the source give for `CC[C@H](C[C@@H](NC(=O)c1ccc(C(F)(F)F)[nH]c1=O)c1ccc(C)cc1)OC` [Compound 552, N-((1R,3R)-3-methoxy-1-(p-tolyl)pentyl)-2-oxo-6-(trifluoromethyl)-1,2-dihydropyridine-3-carboxamide] here?
**A.** The IC50 was 0.59 µM.

**Q.** Which IC50 does the source give for `CCCc1cc(NC(=O)c2ccc(C(F)(F)F)[nH]c2=O)cc(CCC)n1` [Compound 268, N-(2,6-dipropylpyridin-4-yl)-2-oxo-6-(trifluoromethyl)-1,2-dihydropyridine-3-carboxamide] here?
**A.** Its IC50 is greater than 10 µM.

**Q.** Which IC50 does the source give for `CCc1cccc2c1C(NC(=O)c1ccc(C(F)(F)F)[nH]c1=O)c1ccccc1O2` (stereo not drawn) [Compound 163, N-(1-ethyl-9H-xanthen-9-yl)-2-oxo-6-(trifluoromethyl)-1,2-dihydropyridine-3-carboxamide] here?
**A.** The IC50 was 0.84 µM.

**Q.** With `O=C(NC1c2ccc(Cl)cc2Sc2cccc(Cl)c21)c1ccc(C(F)(F)F)[nH]c1=O` (stereo not drawn) [Compound 251, N-(1,6-dichloro-9H-thioxanthen-9-yl)-2-oxo-6-(trifluoromethyl)-1,2-dihydropyridine-3-carboxamide] as the compound, how does the IC50 read?
**A.** The IC50 was 0.65 µM.

**Q.** How did the IC50 turn out when `Cc1ccc(C(NC(=O)c2ccc(C(F)(F)F)[nH]c2=O)c2ccccc2)c(S(C)(=O)=O)c1` (stereo not drawn) [Compound 442, N-((4-methyl-2-(methylsulfonyl)phenyl)(phenyl)methyl)-2-oxo-6-(trifluoromethyl)-1,2-dihydropyridine-3-carboxamide] was run?
**A.** Its IC50 is 2.56 µM.

**Q.** How did the IC50 turn out when `Cc1ccc2c(c1)Oc1cccc(C)c1C2NC(=O)c1cc(N2CCOCC2)c(C(F)(F)F)[nH]c1=O` (stereo not drawn) [Compound 439, N-(1,6-dimethyl-9H-xanthen-9-yl)-5-morpholino-2-oxo-6-(trifluoromethyl)-1,2-dihydropyridine-3-carboxamide] was run?
**A.** The IC50 was 0.56 µM.

**Q.** How did the IC50 turn out when `CCc1cc(C(F)(F)F)[nH]c(=O)c1C(=O)NC1c2ccc(C)cc2Oc2cc(C)ccc21` [Compound 201, N-(3,6-dimethyl-9H-xanthen-9-yl)-4-ethyl-2-oxo-6-(trifluoromethyl)-1,2-dihydropyridine-3-carboxamide] was run?
**A.** The IC50 was 0.43 µM.

**Q.** Which IC50 does the source give for `O=C(NC1CCNc2ccccc21)c1ccc(C(F)(F)F)[nH]c1=O` (stereo not drawn) [Compound 130, 2-oxo-N-(1,2,3,4-tetrahydroquinolin-4-yl)-6-(trifluoromethyl)-1,2-dihydropyridine-3-carboxamide] here?
**A.** Its IC50 is greater than 10 µM.

**Q.** For `O=C(NC1c2ccccc2Oc2cccc(F)c21)c1ccc(C(F)(F)F)[nH]c1=O` (stereo not drawn) [Compound 156, N-(1-fluoro-9H-xanthen-9-yl)-2-oxo-6-(trifluoromethyl)-1,2-dihydropyridine-3-carboxamide], which IC50 is on record?
**A.** Its IC50 is 0.26 µM.

**Q.** Which IC50 does the source give for `CNc1ccc(C(NC(=O)c2ccc(C(F)(F)F)[nH]c2=O)c2ccc(C)cc2)cc1` (stereo not drawn) [Compound 420, N-((4-(methylamino)phenyl)(p-tolyl)methyl)-2-oxo-6-(trifluoromethyl)-1,2-dihydropyridine-3-carboxamide] here?
**A.** The IC50 was 0.13 µM.

**Q.** Which IC50 does the source give for `Cc1ccc2c(c1)CC(C)C2NC(=O)c1ccc(C(F)(F)F)[nH]c1=O` (stereo not drawn) [Compound 296, N-(2,5-dimethyl-2,3-dihydro-1H-inden-1-yl)-2-oxo-6-(trifluoromethyl)-1,2-dihydropyridine-3-carboxamide] here?
**A.** The IC50 was 0.17 µM.

**Q.** For `O=C(N[C@@H]1C[C@@H](CCO)Cc2ccccc21)c1ccc(C(F)(F)F)[nH]c1=O` [Compound 263, N-((1R,3S)-3-(2-hydroxyethyl)-1,2,3,4-tetrahydronaphthalen-1-yl)-2-oxo-6-(trifluoromethyl)-1,2-dihydropyridine-3-carboxamide], which IC50 is on record?
**A.** Its IC50 is 8.46 µM.

**Q.** For `Cc1cc(C(F)(F)F)[nH]c(=O)c1C(=O)NC1c2ccccc2-c2ccccc21` [Compound 213, N-(9H-fluoren-9-yl)-4-methyl-2-oxo-6-(trifluoromethyl)-1,2-dihydropyridine-3-carboxamide], which IC50 is on record?
**A.** The IC50 was 2.24 µM.

**Q.** How did the IC50 turn out when `C=CCc1cc(CC=C)cc(NC(=O)c2ccc(C(F)(F)F)[nH]c2=O)c1` [Compound 270, N-(3,5-diallylphenyl)-2-oxo-6-(trifluoromethyl)-1,2-dihydropyridine-3-carboxamide] was run?
**A.** The IC50 was 1.39 µM.

**Q.** Which IC50 does the source give for `C=CCc1cc(NC(=O)c2ccc(C(F)(F)F)[nH]c2=O)cc(/C=C/C)n1` [Compound 269, (E)-N-(2-allyl-6-(prop-1-en-1-yl)pyridin-4-yl)-2-oxo-6-(trifluoromethyl)-1,2-dihydropyridine-3-carboxamide] here?
**A.** The IC50 was 5.01 µM.

**Q.** With `Cc1ccc2c(c1)Oc1cc(C)ccc1C2NC(=O)c1cc(CN2CCNCC2)c(C(F)(F)F)[nH]c1=O` [Compound 429, N-(3,6-dimethyl-9H-xanthen-9-yl)-2-oxo-5-(piperazin-1-ylmethyl)-6-(trifluoromethyl)-1,2-dihydropyridine-3-carboxamide] as the compound, how does the IC50 read?
**A.** Its IC50 is 0.32 µM.

**Q.** How did the IC50 turn out when `O=C(NC(c1ccc(Br)cc1)c1ccc(Br)cc1)c1ccc(C(F)(F)F)[nH]c1=O` [Compound 10, N-(bis(4-bromophenyl)methyl)-2-oxo-6-(trifluoromethyl)-1,2-dihydropyridine-3-carboxamide] was run?
**A.** The IC50 was 0.67 µM.

**Q.** For `Cc1ccc(C(NC(=O)c2ccc(C(F)F)[nH]c2=O)c2ccc(C)cc2)cc1` [Compound 61, N-(di-p-tolylmethyl)-6-(difluoromethyl)-2-oxo-1,2-dihydropyridine-3-carboxamide], which IC50 is on record?
**A.** Its IC50 is 2.25 µM.

**Q.** For `O=C(NC1CCc2cc(Cl)ccc21)c1ccc(C(F)(F)F)[nH]c1=O` (stereo not drawn) [Compound 131, N-(5-chloro-2,3-dihydro-1H-inden-1-yl)-2-oxo-6-(trifluoromethyl)-1,2-dihydropyridine-3-carboxamide], which IC50 is on record?
**A.** The IC50 was 1.82 µM.

**Q.** `O=C(NC(c1ccc(O)cc1)c1ccc(O)cc1)c1ccc(C(F)(F)F)[nH]c1=O` [Compound 23, N-(bis(4-hydroxyphenyl)methyl)-2-oxo-6-(trifluoromethyl)-1,2-dihydropyridine-3-carboxamide] was tested. Which IC50 did it give?
**A.** The IC50 was 4.24 µM.

**Q.** Which IC50 does the source give for `CNCCc1cc(C(=O)NC2c3ccc(C)cc3Oc3cccc(C)c32)c(=O)[nH]c1C(F)(F)F` (stereo not drawn) [Compound 524, N-(1,6-dimethyl-9H-xanthen-9-yl)-5-(2-(methylamino)ethyl)-2-oxo-6-(trifluoromethyl)-1,2-dihydropyridine-3-carboxamide] here?
**A.** The IC50 was 9.33 µM.

**Q.** How did the IC50 turn out when `Cc1ccc2c(c1)Oc1cc(C)ccc1C2NC(=O)c1ccc(C)[nH]c1=O` [Compound 149, N-(3,6-dimethyl-9H-xanthen-9-yl)-6-methyl-2-oxo-1,2-dihydropyridine-3-carboxamide] was run?
**A.** The IC50 was greater than 10 µM.

Same assay, conditions: 150 nM HSD17B13; read-out: Inhibition of 150 nM of HSD17B13 IC50

**Q.** For `O=C(NC(c1ccccc1)c1cccc(Cl)c1)c1ccc(C(F)(F)F)[nH]c1=O` (stereo not drawn) [Compound 6, N-((3-chlorophenyl)(phenyl)methyl)-2-oxo-6-(trifluoromethyl)-1,2-dihydropyridine-3-carboxamide], which IC50 is on record?
**A.** The IC50 was 4.52 µM.
